In ChEMBL document CHEMBL5316313, “Discovery of Novel 3-Phenylpiperidine Derivatives Targeting the β-Catenin/B-Cell Lymphoma 9 Interaction as a Single Agent and in Combination with the Anti-PD-1 Antibody for the Treatment of Colorectal Cancer” (J Med Chem, 2023):
pKi: −log10 of the molar value.

Biological target: T1, beta-catenin-B-cell lymphoma 9 protein complex (Homo sapiens, UniProt P35222)
T1 sequence (P35222 whole entry): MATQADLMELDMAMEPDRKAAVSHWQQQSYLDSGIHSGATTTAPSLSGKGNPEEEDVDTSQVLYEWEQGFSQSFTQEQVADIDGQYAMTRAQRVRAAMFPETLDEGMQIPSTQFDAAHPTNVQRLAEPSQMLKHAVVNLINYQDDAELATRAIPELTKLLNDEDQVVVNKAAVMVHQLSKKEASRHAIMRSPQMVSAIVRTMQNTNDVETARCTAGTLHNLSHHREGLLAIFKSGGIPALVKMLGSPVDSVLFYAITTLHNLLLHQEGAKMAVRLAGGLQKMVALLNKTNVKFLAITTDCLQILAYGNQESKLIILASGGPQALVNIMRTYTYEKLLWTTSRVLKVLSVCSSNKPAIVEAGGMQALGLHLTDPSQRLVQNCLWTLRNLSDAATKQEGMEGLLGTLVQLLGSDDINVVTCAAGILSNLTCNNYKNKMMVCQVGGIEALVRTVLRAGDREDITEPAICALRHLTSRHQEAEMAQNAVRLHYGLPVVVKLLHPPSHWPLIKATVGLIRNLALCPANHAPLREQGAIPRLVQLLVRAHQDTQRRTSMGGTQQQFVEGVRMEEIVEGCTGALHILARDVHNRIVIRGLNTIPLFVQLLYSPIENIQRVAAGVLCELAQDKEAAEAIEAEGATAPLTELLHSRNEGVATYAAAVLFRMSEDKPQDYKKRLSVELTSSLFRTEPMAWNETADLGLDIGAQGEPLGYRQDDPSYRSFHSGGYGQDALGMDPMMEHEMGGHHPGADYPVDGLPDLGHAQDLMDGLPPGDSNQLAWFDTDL
T1 sequence (O00512 whole entry): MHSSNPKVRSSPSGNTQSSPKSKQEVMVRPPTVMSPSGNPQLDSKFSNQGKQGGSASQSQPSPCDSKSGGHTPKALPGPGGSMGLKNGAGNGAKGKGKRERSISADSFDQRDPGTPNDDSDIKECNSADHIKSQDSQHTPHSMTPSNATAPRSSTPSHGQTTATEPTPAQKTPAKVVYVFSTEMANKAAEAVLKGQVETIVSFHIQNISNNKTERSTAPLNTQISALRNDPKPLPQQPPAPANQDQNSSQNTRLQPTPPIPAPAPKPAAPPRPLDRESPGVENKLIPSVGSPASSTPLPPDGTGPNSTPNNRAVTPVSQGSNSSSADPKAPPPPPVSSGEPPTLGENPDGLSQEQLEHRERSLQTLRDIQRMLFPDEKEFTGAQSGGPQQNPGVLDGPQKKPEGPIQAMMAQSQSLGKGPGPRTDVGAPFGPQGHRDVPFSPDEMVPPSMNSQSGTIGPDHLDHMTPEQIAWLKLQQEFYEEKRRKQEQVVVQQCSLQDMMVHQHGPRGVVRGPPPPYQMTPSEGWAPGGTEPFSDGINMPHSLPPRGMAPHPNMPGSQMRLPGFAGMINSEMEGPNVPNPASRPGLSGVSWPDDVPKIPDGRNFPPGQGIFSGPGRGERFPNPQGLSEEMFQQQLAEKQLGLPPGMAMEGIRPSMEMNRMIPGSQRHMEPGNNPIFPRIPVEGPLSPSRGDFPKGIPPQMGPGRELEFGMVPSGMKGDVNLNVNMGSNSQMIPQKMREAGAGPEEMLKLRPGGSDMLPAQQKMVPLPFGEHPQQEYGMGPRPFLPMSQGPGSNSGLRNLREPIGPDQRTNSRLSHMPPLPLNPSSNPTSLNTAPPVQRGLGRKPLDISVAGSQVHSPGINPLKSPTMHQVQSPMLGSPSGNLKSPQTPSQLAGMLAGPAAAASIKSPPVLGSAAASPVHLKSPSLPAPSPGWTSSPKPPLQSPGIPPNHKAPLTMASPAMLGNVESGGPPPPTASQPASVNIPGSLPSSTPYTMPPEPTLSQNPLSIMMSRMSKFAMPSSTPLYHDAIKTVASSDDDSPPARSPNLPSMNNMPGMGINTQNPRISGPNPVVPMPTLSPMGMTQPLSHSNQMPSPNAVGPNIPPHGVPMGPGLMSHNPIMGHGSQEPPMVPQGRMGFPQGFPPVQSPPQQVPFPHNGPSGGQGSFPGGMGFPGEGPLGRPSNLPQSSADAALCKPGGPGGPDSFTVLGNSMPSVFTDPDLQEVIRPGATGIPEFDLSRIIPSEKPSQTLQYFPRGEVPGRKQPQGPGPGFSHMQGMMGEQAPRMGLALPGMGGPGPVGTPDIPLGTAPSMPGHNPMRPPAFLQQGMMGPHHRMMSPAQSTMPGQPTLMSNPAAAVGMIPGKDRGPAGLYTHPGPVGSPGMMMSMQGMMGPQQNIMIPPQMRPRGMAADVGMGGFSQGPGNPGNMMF
Assay: Inhibition of beta-catenin (unknown origin)/BCL9 (unknown origin) protein-protein interaction assessed as inhibition constant by AlphaScreen assay
Format: protein-complex assay

O=C(Nc1ccc(O[C@H]2CCNC2)c(-c2cccc(-c3nn[nH]n3)c2)c1)c1ccc(O[C@H]2CCNC2)c(-c2ccc(F)c(F)c2)c1
pKi: 6.33
